Measured values: patent US20160238590A1, “COMPOSITIONS AND METHODS RELATED TO OAT SENSITIVITY” (IMMUSANT, INC., priority 2013, published 2016)
Where no end group is shown, it is not given here. [ ]: non-standard residue; d: D form. pGlu = O=C1CC[C@@H](C(=O)O)N1

Experiments:
Type in all cases: cell-based, human
PBMC [1] = experiment: IFN-γ ELISpot on PBMC of CD patients after 3-day barley challenge; conditions: after barley challenge
Source text: (§1) Australian Caucasian HLA-DQ2.5^+ and/or HLA-DQ8^+ CD subjects were recruited by advertisement in the Coeliac Society of Victoria newsletter and all had biopsy-proven CD conforming to ESPGHAN criteria. Patients had been on strict gluten free diet for at least 4 weeks prior to commencing grain challenge. Patients underwent 3-day grain challenge with oats, barley, or combined wheat, barley, and rye muffins, and 6 days after commencement, blood was collected. Day 0 responses were not observed in the selection of patients tested, as described previously^8.
(§2) Oats challenge consisted of 100 g dry weight daily of one of three commercial brands of oats: one not tested for wheat contamination (Uncle Toby's; Oats #1), and two shown by R5 ELISA to contain less than 20 ppm wheat gluten (Tilquhilie Pudding; Oats #2 and Freedom Food; Oats #3). Barley challenge consisted of pearl barley (Ward McKenzie) cooked into a risotto (150 g dry weight daily) and the wheat challenge consisted of four 50 g slices of wheat bread daily (Baker's Delight white loaf cut to toasting thickness). The combined wheat, barley, and rye challenge consisted of muffins baked with wheat flour (White Wings), barley flour (Four Leaf Milling), and rye flour (Four Leaf Milling; 22-25 g dry weight each daily). A symptom diary based on a […] Likert scale was completed by participants daily from baseline until day 6.
(§3) Two avenin peptide libraries were utilized for epitope screening. These were designed using avenin sequences from GenBank and a customized algorithm, as previously described^9. The initial library consisted of 199 screening-grade 20 mers including all possible 12 mers (Mimotopes). This library was screened with and without tTG pre-treatment. The second library consisted of additional avenin sequences that were synthesized with glutamate substitution at sites predicted to be deamidated by published algorithms^10, 11 removing the requirement for tTG treatment. This library contained 369 screening-grade 20 mers, including all possible 12 mers (Pepscan). The second round avenin library contained wild-type and deamidated versions of the most immunogenic sequences (25 high quality 16 mers from Mimotopes). High quality peptides containing previously described immunogenic sequences from wheat, barley, and rye were used to test for cross-reactivity^8 (Pepscan). High quality hordein and avenin peptides for TCC testing and biochemical studies were ordered from Pepscan, Mimotopes, or GL Biochem.
(§4) Peripheral blood mononuclear cells (PBMC) were isolated from heparinized whole blood using Ficoll-Paque™ Plus density-gradient centrifugation (GE Healthcare). IFN-γ ELISpot (Mabtech) was set up as previously described^8.

PBMC [2] = experiment: IFN-γ ELISpot on PBMC of CD patients on day 6 after 3-day oats challenge; conditions: after 3-day oats challenge
Source text: as §1, §2, §3, §4

Patient 2 TCC-01 = experiment: IFN-γ ELISpot with T cell clone; conditions: TCC Patient 2 TCC-01 (Table 5); mean no antigen 1.1
Description: as §4
(§5) Isolation of TCC from CD patients was carried out as previously described^8. Briefly, CFSE-labeled PBMC were incubated with antigen for 7 days in IMDM supplemented with 5% heat-inactivated pooled human serum (PHS), 2 mM GlutaMAX™, 100 μM MEM non-essential amino acids (both from Gibco, Invitrogen), and 50 μM 2-mercaptoethanol (Sigma). Proliferated cells were single-cell sorted into 96-well plates containing IL-2, IL-4, anti-CD3 mAb, irradiated feeder cells (allogeneic PBMC and JY-EBV). TCC were expanded and maintained in IL-2 and IL-4 and tested for specificity by ELISpot with irradiated HLA-matched PBMC as antigen-presenting cells. Expanded clones were tested for HLA-DQ restriction, TCR Vbeta usage, and with lysine scans to work out minimal epitopes. See Table 1 below for TCC and epitope information.

Patient 14 TCC-01 = experiment: IFN-γ ELISpot with T cell clone; conditions: TCC Patient 14 TCC-01 (Table 5); mean no antigen 11.3, high background, SFU >25 considered as positive responses
Description: as §4, §5

Patient 6 TCC-01 = experiment: IFN-γ ELISpot with T cell clone; conditions: TCC Patient 6 TCC-01 (Table 5); mean no antigen 2
Description: as §4, §5

Row | Substance | IFN-γ ELISpot response (raw SFU) (PBMC [2]; patient P1, peptide 1 μg/ml) [SFU] | IFN-γ ELISpot response (raw SFU) (PBMC [2]; patient P1, peptide 10 μg/ml) [SFU] | IFN-γ ELISpot response (raw SFU) (PBMC [2]; patient P1, peptide 100 μg/ml) [SFU] | IFN-γ ELISpot response (raw SFU) (PBMC [2]; patient P2, peptide 1 μg/ml) [SFU] | IFN-γ ELISpot response (raw SFU) (PBMC [2]; patient P2, peptide 10 μg/ml) [SFU] | IFN-γ ELISpot response (raw SFU) (PBMC [2]; patient P2, peptide 100 μg/ml) [SFU] | significant SFU as a percentage of maximal peptide SFU (PBMC [2]; patient P2, peptide 100 μg/ml) | IFN-γ ELISpot response (raw SFU) (PBMC [2]; patient P3, peptide 1 μg/ml) [SFU] | IFN-γ ELISpot response (raw SFU) (PBMC [2]; patient P3, peptide 10 μg/ml) [SFU] | IFN-γ ELISpot response (raw SFU) (PBMC [2]; patient P3, peptide 100 μg/ml) [SFU] | IFN-γ ELISpot response (raw SFU) (PBMC [2]; patient P11, peptide 1 μg/ml) [SFU] | IFN-γ ELISpot response (raw SFU) (PBMC [2]; patient P11, peptide 10 μg/ml) [SFU] | IFN-γ ELISpot response (raw SFU) (PBMC [2]; patient P11, peptide 100 μg/ml) [SFU] | IFN-γ ELISpot response (raw SFU) (PBMC [2]; patient P12, peptide 1 μg/ml) [SFU] | IFN-γ ELISpot response (raw SFU) (PBMC [2]; patient P12, peptide 10 μg/ml) [SFU] | IFN-γ ELISpot response (raw SFU) (PBMC [2]; patient P12, peptide 100 μg/ml) [SFU] | IFN-γ ELISpot response (raw SFU) (PBMC [2]; patient P13, peptide 50 μg/ml) [SFU] | IFN-γ ELISpot response (raw SFU) (Patient 2 TCC-01) [SFU] | IFN-γ ELISpot response (raw SFU) (Patient 14 TCC-01) [SFU] | IFN-γ ELISpot response (raw SFU) (Patient 6 TCC-01) [SFU] | further results
1 | QYQPYPEQEQPILQQQ [partially deamidated avenin peptide containing DQ2.5-ave-1c] | 11 | 33 | 11 | 6 | 34 | 38 | *** (***: >70%) | 19 | 26 | 18 | 3 | 41 | 50 | 1 | 39 | 31 | 4 | 288 | 21 | 5 | IFN-γ ELISpot response (raw SFU) (PBMC [1]; Patient 1, peptide 50 μg/ml): 58 SFU; significant SFU as a percentage of maximal peptide SFU (PBMC [1]; Patient 1, peptide 50 μg/ml): ^^ (^^: 10-20%); IFN-γ ELISpot response (raw SFU) (PBMC [1]; Patient 2, peptide 50 μg/ml): 220 SFU; significant SFU as a percentage of maximal peptide SFU (PBMC [1]; Patient 2, peptide 50 μg/ml): *** (***: >70%); IFN-γ ELISpot response (raw SFU) (PBMC [1]; Patient 3, peptide 50 μg/ml): 34 SFU; significant SFU as a percentage of maximal peptide SFU (PBMC [1]; Patient 3, peptide 50 μg/ml): * (*: 20-40%); significant SFU as a percentage of maximal peptide SFU (PBMC [2]; patient P1, peptide 1 μg/ml): * (*: 20-40%); significant SFU as a percentage of maximal peptide SFU (PBMC [2]; patient P1, peptide 10 μg/ml): *** (***: >70%); significant SFU as a percentage of maximal peptide SFU (PBMC [2]; patient P1, peptide 100 μg/ml): * (*: 20-40%); significant SFU as a percentage of maximal peptide SFU (PBMC [2]; patient P2, peptide 10 μg/ml): ** (**: 40-70%); significant SFU as a percentage of maximal peptide SFU (PBMC [2]; patient P3, peptide 1 μg/ml): * (*: 20-40%); significant SFU as a percentage of maximal peptide SFU (PBMC [2]; patient P3, peptide 10 μg/ml): ** (**: 40-70%); significant SFU as a percentage of maximal peptide SFU (PBMC [2]; patient P3, peptide 100 μg/ml): * (*: 20-40%); significant SFU as a percentage of maximal peptide SFU (PBMC [2]; patient P11, peptide 10 μg/ml): *** (***: >70%); significant SFU as a percentage of maximal peptide SFU (PBMC [2]; patient P11, peptide 100 μg/ml): *** (***: >70%); significant SFU as a percentage of maximal peptide SFU (PBMC [2]; patient P12, peptide 10 μg/ml): ** (**: 40-70%); significant SFU as a percentage of maximal peptide SFU (PBMC [2]; patient P12, peptide 100 μg/ml): ** (**: 40-70%)
2 | QYQPYPEQQQPILQQQ [avenin peptide, Genbank AAB32025 (7-22), wild-type] | 2 | 11 | 11 | 2 | 10 | 23 | ** (**: 40-70%) | 1 | 25 | 4 | 2 | 11 | 4 | 1 | 3 | 7 | 2 | 79 | 22 | 3 | significant SFU as a percentage of maximal peptide SFU (PBMC [2]; patient P1, peptide 10 μg/ml): * (*: 20-40%); significant SFU as a percentage of maximal peptide SFU (PBMC [2]; patient P1, peptide 100 μg/ml): * (*: 20-40%); significant SFU as a percentage of maximal peptide SFU (PBMC [2]; patient P3, peptide 10 μg/ml): ** (**: 40-70%); significant SFU as a percentage of maximal peptide SFU (PBMC [2]; patient P11, peptide 10 μg/ml): (^: 10-20%); significant SFU as a percentage of maximal peptide SFU (PBMC [2]; patient P11, peptide 100 μg/ml): ** (**: 40-70%)
3 | SEQYQPYPEQQQPFVQ [avenin peptide, wild-type] | 2 | 2 | 4 | 4 | 1 | 16 | * (*: 20-40%) | 1 | 2 | 4 | 0 | 0 | 0 | 0 | 1 | 4 | 1 | 100 | 11 | 1 | 
4 | pEPEQTFPEQPQLPF ([pGlu]PEQTFPEQPQLPF) [wheat peptide, AAK84780.1 (5-18) [Q5 to pyroglutamate, Q7 to E, Q12 to E], reference compound] |  |  |  |  |  |  |  |  |  |  |  |  |  |  |  |  |  | 2 | 33 | 11 | 
